Measurements published in patent US11066443B2 (Hoffmann-La Roche Inc., priority 2017, dated 2021).
In brackets after ≈: the same amount, converted by molar mass.

The molecules below were run on P. aeruginosa NCTC11454 (assay: Antimicrobial susceptibility testing: 50% growth inhibitory concentration (IC50) determination). Settings: Pseudomonas aeruginosa, Iso-Sensitest broth, OD 600 nm every 20 minutes over 16h, growth inhibition during logarithmic growth.
Type: cell-based
Protocol: The in vitro antimicrobial activity of the compounds was alternatively determined according to the following procedure: The assay used a 10-points Iso-Sensitest broth medium to measure quantitatively the in vitro activity of the compounds against P. aeruginosa NCTC11454. Stock compounds in DMSO were serially twofold diluted (e.g. range from 50 to 0.097 μM final concentration) in 384 wells microtiter plates and inoculated with 49 μl the bacterial suspension in Iso-Sensitest medium to have a final cell concentration of ˜5×10^(5) CFU/ml in a final volume/well of 50 ul/well. Microtiter plates were incubated at 35±2° C. Bacterial cell growth was determined with the measurement of optical density at λ=600 nm each 20 minutes over a time course of 16h. Growth inhibition was calculated during the logarithmic growth of the bacterial cells with determination of the concentration inhibiting 50% (IC50) and 90% (IC90) of the growth. Table 2 provides the 50% growth inhibitory concentrations (IC50) in micromoles per liter of the compounds of present invention obtained against P. aeruginosa NCTC11454.
In the case of CN1C(=O)[C@H](CCCCN)NC(=O)[C@H](CCCN)NCc2cccnc2Sc2c(Cl)ccc(-c3ccc(N4CCNCC4)cc3)c2CNC(=O)[C@@H]1Cc1c[nH]c2ccccc12 [Example 55, (11S,14S,17S)-14-(4-Amino-butyl)-11-(3-amino-propyl)-25-chloro-17-(1H-indol-3-ylmethyl)-16-methyl-22-(4-piperazin-1-yl-phenyl)-2-thia-4,10,13,16,19-pentaaza-tricyclo[19.4.0.0*3,8*]pentacosa-1(25),3(8),4,6,21,2-hexaene-12,15,18-trione], the IC50 is reported as 26.6 µM.

The molecules below were run on P. aeruginosa ATCC27853 (assay: Antimicrobial susceptibility testing: microbroth minimum inhibitory concentration (MIC) determination). Settings: Pseudomonas aeruginosa, CLSI microbroth dilution in CAMHB, read after 20 hours, lowest concentration inhibiting >=80% of growth.
Type: cell-based
Protocol: The in vitro antimicrobial activity of the compounds was determined through microbroth minimum inhibitory concentration (MIC) methodology performed according to the Clinical and Laboratory Standard Institute guidelines (CLSI—M07-A9 Jan. 2012. Methods for Dilution Antimicrobial Susceptibility Tests for Bacteria That Grow Aerobically; Approved Standard—Ninth Edition, Clinical and Laboratory Standards Institue, Wayne/PA, US and the CLSI—M100-S24 Jan. 2014. Performance Standards for Antimicrobial Susceptibility Testing; Approved Standard—Fourth Informational Supplement, Clinical and Laboratory Standards Institue, Wayne/PA, US).
The compound stock solution was freshly prepared at 10× the required top concentration for the MIC determination, i.e. at 1280 mg/L, by reconstitution of the dry compound in 50:50 water:DMSO.
Polystyrene non-treated 96 wells microtiter plates were used for preparing panel containing compound serial twofold diluted at two times the final testing concentration (e.g. range from 64 to 0.06 μg/ml) in cation adjusted Mueller Hinton broth medium (CAMHB).
Inoculum was prepared by the “direct colony suspension method”. Colonies of P. aeruginosa ATCC27853 or clinical isolates were suspended in saline solution and adjusted to 0.5 McFarland, diluted 100 times in CAMHB broth and 50 μl added to each well (final concentration of cells ˜5×10^(5) CFU/ml and Final volume/well of 100 μl). Microtiter plates were sealed and incubated at 35±2° C.
MICs values were read after 20 hours of incubation and recorded as the lowest concentration of the antimicrobial that inhibits more or equal to 80% of growth of the organism as detected by the unaided eye and using a microtiter plate optical density reader (OD 600 nm).
Table 1 provides the minimum inhibitory concentration (MIC) in microgram per milliliter of the compounds of present invention obtained against the P. aeruginosa ATCC27853 (Table 1).
With CN1C(=O)[C@H](CCCCN)NC(=O)[C@H](CCCN)NCc2ccccc2Sc2c(Cl)cccc2CNC(=O)[C@@H]1Cc1c[nH]c2ccccc12 [Example 3, (12S,15S,18S)-15-(4-Amino-butyl)-18-(3-amino-propyl)-4-chloro-12-(1H-indol-3-ylmethyl)-13-methyl-2-thia-10,13,16,19-tetraaza-tricyclo[19.4.0.0*3,8*]pentacosa-1(21),3,5,7,22,24-hexaene-11,14,17-trione] the MIC was > 64 µg/mL.
CN1C(=O)[C@H](CCCCN)NC(=O)[C@H](CCCN)NCc2ccccc2Sc2c(Cl)cc(C(F)(F)F)cc2CNC(=O)[C@@H]1Cc1c[nH]c2ccccc12 [Example 11, (12S,15S,18S)-15-(4-Amino-butyl)-18-(3-amino-propyl)-4-chloro-12-(1H-indol-3-ylmethyl)-13-methyl-6-trifluoromethyl-2-thia-10,13,16,19-tetraaza-tricyclo[19.4.0.0*3,8*]pentacosa-1(25),3,5,7,21,23-hexaene-11,14,17-trione] showed an MIC of 16 µg/mL (≈ 20.7 µM).
CN1C(=O)[C@H](CCCCN)NC(=O)[C@H](CCCN)NCc2cc(F)ccc2Sc2c(Cl)cc(Cl)cc2CNC(=O)[C@@H]1Cc1c[nH]c2ccccc12 [Example 12, (12S,15S,18S)-15-(4-Amino-butyl)-18-(3-amino-propyl)-4,6-dichloro-23-fluoro-12-(1H-indol-3-ylmethyl)-13-methyl-2-thia-10,13,16,19-tetraaza-tricyclo[19.4.0.0*3,8*]pentacosa-1(25),3,5,7,21,23-hexaene-11,14,17-trione] gave an MIC of 32 µg/mL (≈ 42.3 µM).
CN1C(=O)[C@H](CCCCN)NC(=O)[C@H](CCCN)NCc2ccccc2Sc2c(cc(Cl)cc2C(F)(F)F)CNC(=O)[C@@H]1Cc1c[nH]c2ccccc12 [Example 13, (12S,15S,18S)-15-(4-Amino-butyl)-18-(3-amino-propyl)-6-chloro-12-(1H-indol-3-ylmethyl)-13-methyl-4-trifluoromethyl-2-thia-10,13,16,19-tetraaza-tricyclo[19.4.0.0*3,8*]pentacosa-1(25),3,5,7,21,23-hexaene-11,14,17-trione] was tested, and the MIC was 16 µg/mL (≈ 20.7 µM).
Cc1cccc2c1Sc1ccccc1CN[C@@H](CCCN)C(=O)N[C@@H](CCCCN)C(=O)N(C)[C@@H](Cc1c(C)[nH]c3ccccc13)C(=O)NC2 [Example 16, (12S,15S,18S)-15-(4-Amino-butyl)-18-(3-amino-propyl)-4,13-dimethyl-12-(2-methyl-1H-indol-3-ylmethyl)-2-thia-10,13,16,19-tetraaza-tricyclo[19.4.0.0*3,8*]pentacosa-1(21),3,5,7,22,24-hexaene-11,14,17-trione] gave an MIC of 32 µg/mL (≈ 45.8 µM).
Cc1[nH]c2ccccc2c1C[C@H]1C(=O)NCc2cc(Cl)cc(Cl)c2Sc2ccccc2CN[C@@H](CCCN)C(=O)N[C@@H](CCCCN)C(=O)N1C [Example 17, (12S,15S,18S)-15-(4-Amino-butyl)-18-(3-amino-propyl)-4,6-dichloro-13-methyl-12-(2-methyl-1H-indol-3-ylmethyl)-2-thia-10,13,16,19-tetraaza-tricyclo[19.4.0.0*3,8*]pentacosa-1(21),3,5,7,22,24-hexaene-1,14,17-trione] gave an MIC of 32 µg/mL (≈ 42.5 µM).
In the case of CCc1ccc2c(c1)CNC(=O)[C@H](Cc1c[nH]c3ccccc13)N(C)C(=O)[C@H](CCCCN)NC(=O)[C@H](CCCN)NCc1ccccc1S2 [Example 18, (12S,15S,18S)-15-(4-Amino-butyl)-18-(3-amino-propyl)-6-ethyl-12-(1H-indol-3-ylmethyl)-13-methyl-2-thia-10,13,16,19-tetraaza-tricyclo[19.4.0.0*3,8*]pentacosa-1(25),3,5,7,21,23-hexaene-11,14,17-trione], the MIC is reported as 32 µg/mL (≈ 45.8 µM).
